The values that follow are results of earlier work, collected in patent publication US7115628B2, “Bridged piperidine derivatives as melanocortin receptor agonists” (Merck & Co., Inc., priority 2001, dated 2006).

The subject of series [1] is patients with erectile dysfunction. As to conditions: for duration of effect / onset of action: after an oral dose; for share of men/patients in whom effective (adequate response): oral.
Series [2] deals with males with psychogenic erectile dysfunction.
Where [3] appears, read: subcutaneous injection formulation.

Regarding `CCCc1nn(C)c2c(=O)[nH]c(-c3cc(S(=O)(=O)N4CCN(C)CC4)ccc3OCC)nc12` [Sildenafil, sildenafil], in series [1], the duration of effect entry is on record as “about 4 hours”, the onset of action was 30 to 60 min and the “share of men/patients in whom effective (adequate response)” value is “about 70%”.
In the case of `Cc1ccc(N(CC2=NCCN2)c2cccc(O)c2)cc1` [phentolamine], in series [1], the duration of effect was 2 h, the onset of action is 5 to 30 min and the “share of men/patients in whom effective (adequate response)” value is 35–40%.
Turning to “Ac-Nle-c[Asp-His-DPhe-Arg-Trp-Lys]-NH2 [MT-II]”, the “absorption into the systemic circulation” value in series [2] (in vivo, po) is reported as “not absorbed into the systemic circulation”. In addition, the response rate in series [2] (injected intramuscularly or subcutaneously) is 75%. Also, in series [2] (setting [3]), the duration of action result was “approximately 2.5 hours” and the “time to onset of erection” value is 10 to 20 min.
